Series [1] can be described thus: Metabolic stability in human liver microsomes. The series is classed as in vitro ADME. The method, then:
Objective: The metabolic stability of the test compound in CD-1 mice and human liver microsomes was determined. […]

Series [2] is described as follows: Liver-to-blood ratio in Balb/c mice orally administered with the test compound. The series is classed as in vivo. Conditions: Balb/c female mice, oral administration, 3 mg/kg. The method, then: Experiment on the Liver-to-Blood Ratio in Balb/c Mice Orally Administered with the Test Compound The compound of formula (I) was mixed with an aqueous solution containing […] polyethylene glycol-15 hydroxystearate, and the mixture was vortexed and sonicated to prepare a 0.3 mg/mL clear solution for later use. Balb/c female mice aged 7 to 10 weeks were orally administered with the candidate compound solution at a dose of 3 mg/kg. Whole blood at a certain time point was collected and plasma was prepared. Liver tissues at the corresponding time point were collected to prepare a tissue homogenate. Drug concentration was analyzed by LC-MS/MS and pharmacokinetic parameters were calculated with Phoenix WinNonlin software.

The next series addresses T1, CYP2C19 (Homo sapiens, UniProt P33261).
T1 construct: from tissue; host or cells: human liver microsomes
Put plainly: Inhibition of human liver microsomal cytochrome P450 isoenzyme CYP2C19. The series is classed as in vitro ADME. Conditions: human liver microsomes. As for the experimental part:
Objective: The inhibitory effect of the test compound on the activity of human liver microsomal cytochrome P450 isoenzymes (CYP1A2, CYP2C9, CYP2C19, CYP2D6 and CYP3A4) was determined. […]
(In general: Microsomes from liver hold many membrane-bound enzymes, among them those of drug oxidation.)

Consider one compound from patent US20230026869A1, “CRYSTAL FORM OF NUCLEOPROTEIN INHIBITOR AND USE THEREOF” (CHIA TAI TIANQING PHARMACEUTICAL GROUP CO., LTD., priority 2019, published 2023).

Usually half-life stands for how long it takes for the measured level to halve. A higher half-life goes with slow loss. By CLint scaled is commonly meant a measure of how fast metabolising enzymes remove a compound, apart from limits set by blood flow. Low readings indicate greater metabolic stability, high ones faster metabolism. A word on the microsomal CLint: it is the rate of metabolic loss divided by the concentration. By AUC(0-t) is commonly meant exposure summed from dosing to a finite time, without extrapolation to infinity. The IC50 is the concentration that inhibits the measured activity by half. A lower IC50 goes with higher potency.

T1 sequence (P33261 whole entry): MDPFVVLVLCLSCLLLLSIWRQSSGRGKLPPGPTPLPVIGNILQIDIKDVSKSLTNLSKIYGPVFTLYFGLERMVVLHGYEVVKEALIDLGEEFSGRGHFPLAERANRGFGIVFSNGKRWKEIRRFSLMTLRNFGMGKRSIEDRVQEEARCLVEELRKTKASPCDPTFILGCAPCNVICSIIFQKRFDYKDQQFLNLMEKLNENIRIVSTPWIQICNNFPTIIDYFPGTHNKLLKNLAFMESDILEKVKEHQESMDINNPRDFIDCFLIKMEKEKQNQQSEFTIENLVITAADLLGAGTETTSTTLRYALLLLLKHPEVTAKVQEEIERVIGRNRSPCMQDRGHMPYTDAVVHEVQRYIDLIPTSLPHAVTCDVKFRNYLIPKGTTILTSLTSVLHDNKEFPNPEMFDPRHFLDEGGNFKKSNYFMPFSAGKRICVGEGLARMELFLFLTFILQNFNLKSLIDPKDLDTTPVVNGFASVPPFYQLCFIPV

In turn, `CC1(NC(=O)C(=O)c2c(Cl)c(C(=O)Nc3cc(F)c(F)c(F)c3)c3n2CCC3)CCC(CC(=O)O)CC1` (stereo not shown) [Compound of formula (I)] had a half-life at 1 μM in series [1] (Human liver microsomes, 1 μM compound, 0.5 mg/mL) of over 2.42 h. In series [1] (human liver microsomes), this compound returned a CLint scaled at 1 μM of under 8.6 mL/min/kg. For the same compound, in series [1] (human, microsomes), the microsomal CLint at 1 μM is under 9.6 µL/min/mg. Moreover, the AUC0-last in series [2] (Liver) was found to be 86036 nmol·h/kg. Besides, the Kp in series [2] (mouse, liver / plasma, read-out: AUC ratio (L/P) Liver/plasma exposure ratio) is 24.7. Besides, the AUC(0-t) in series [2] (mouse, Plasma) is 3.48 µM·h. The same compound registered an IC50 at CYP2C19 of over 50 µM.
